Earlier results as cited in US20190358240A1, “HIV TREATMENT FORMULATION OF ATAZANAVIR AND COBICISTAT” (BRISTOL-MYERS SQUIBB COMPANY, priority 2013, published 2019).

Conditions: human, in vivo

In the case of `COC(=O)N[C@H](C(=O)N[C@@H](Cc1ccccc1)[C@@H](O)CN(Cc1ccc(-c2ccccn2)cc1)NC(=O)[C@@H](NC(=O)OC)C(C)(C)C)C(C)(C)C` [Atazanavir, methyl N-[(1S)-1-{[(2S,3S)-3-hydroxy-4-[(2S)-2-[(methoxycarbonyl)amino]-3,3-dimethyl-N′-{[4-(pyridin-2-yl)phenyl]methyl}butanehydrazido]-1-phenylbutan-2-yl]carbamoyl}-2,2-dimethylpropyl]carbamate], the “Accumulation at steady state” value is given as 2-3 fold, the “Time to steady state” value is given as 4 to 8 days and the Tmax is given as roughly 2.5 h.
